The test system of experiment [1] is estrogen receptor negative human breast cancer cell lines. The conditions noted are these: approximately 0.1 to 2–3 μM; cited from earlier work.
The subject of experiment [2] is estrogen receptor-positive human breast cancer cell lines. The note with it: approximately 0.1 to 2–3 μM; cited from earlier work.
The test system of experiment [3] is ECC-1 endometrial cancer cells. Nature of the experiment: ECC-1 endometrial cancer cell proliferation assay ([3H]thymidine incorporation). It counts as cell-based, human. The conditions noted are these: for cell proliferation ([3H]thymidine incorporation into DNA): 0.4 and 4 μM, after three days (FIG. 1, panel A); for inhibition of cell proliferation: higher, non-physiological concentrations (10 μM), after three days in culture (FIG. 1, panel A); for effect on endometrial cancer cell growth over the concentration range: increasing concentrations, low to high; for genistein-induced cell proliferation: stimulated by genistein at 1 MM (FIG. 4). Here is the method: (§1) Tetrahydrofuran (THF) containing 0.25% butylated hydroxytoluene was added to purified carotenoids as an antioxidant. Carotenoids were dissolved in THF at a concentration of 2 mMM and stored at −70 C. Immediately before use, stock solutions were thawed and added to the cell culture medium under nitrogen, followed by vigorous stirring. Precipitates formed were removed by filtration through Millex-HV filter (Millipore). Final carotenoid concentrations in the medium were determined by spectrophotometry after extraction in 2-propanol and n-hexane:dichloronomethane, as in U.S. Pat. No. 5,827,900.
(§2) The human endometrial cancer (estrogen dependent) cell line ECC-1 was developed by Dr. P. G. Satyaswaroop, Pennslyvania State University, Pennsylvania, U.S.A, and generously provided to us by Dr. R. Oregan, Northwestern University, Chicago, Ill., U.S.A. Human mammary cancer cell lines MCF-7 (estrogen dependent) and MDA-231 (hormone independent) were obtained from the American Type Culture Collection (Rockville, Md.).
(§3) Cells were cultured in DMEMM containing penicillin (100 U/ml), streptomycin (0.1 mg/ml)) nystatin (12.5 (g/ml), insulin (0.6 (g/ml), and 10% FCS. Cells were stripped of endogenous steroids according to the procedure of Vignon et al. (1987, Biochem. Biophys. Res. Comm., 146:1502–8) by successive passages in medium without phenol red containing 10% and then 3% of charcoal-stripped FCS. Cells were seeded into 96 multiwell plates (5,000 cells per well) in DMEMM containing 3% of charcoal-stripped FCS. After one day the medium was changed to one containing the solubilized carotenoid or THF alone. The medium was changed daily to ensure a continuous supply of carotenoid.
(§4) After incubation, the number of cells and the rate of cell proliferation were estimated by the incorporation of [^3H]thymidine incorporation into cellular DNA, as described in U.S. Pat. No. 5,827,900. Cell growth was also measured by direct cell counting with a Coulter counter after trypsinization and dilution in Isotone-II (Coulter Electronics, Luton, England). A good correlation was found between the two methods.
ECC-1 cells were incubated with increasing concentrations of the isoflavones genistein and daidzein, the two primary isoflavones in soy products, and with soy extract. Cell proliferation after three days was measured by [^3H]thymidine incorporation into DNA (FIG. 1, panel A).
ECC-1 cells were also incubated with a single high concentration (40 μM) of each of genistein, daidzein and soy extract. Cell proliferation was assayed daily over the course of three days.
(§5) The comparative effects of estradiol and genistein supplementation on the proliferation of the hormone-dependent cell lines MCF-7 mammary cancer and ECC-1 endometrial cancer were examined (FIG. 2).
(§6) Cell cultures stimulated either by genistein or estradiol, as described above, were further supplemented with lycopene and assayed for cell proliferation after three days in culture.
The ECC-1 hormone-dependent cell line was stimulated either by estradiol at 10 nM (FIG. 4, left panel) or by genistein at 1 MM (FIG. 4, panel B) and test cultures were additionally supplemented with various carotenoids.
The hormone-dependent endometrial cancer cell line ECC-1 was stimulated either by estradiol at 10 nM (FIG. 5, left panel) or by genistein at 1 μM (FIG. 5, right panel) and test cultures were additionally supplemented with various concentrations of lycopene. […] The lowest lycopene concentration tested (0.9 μM) is in the physiological range found in human serum.
In general terms: Dividing cells build labelled thymidine or BrdU into new DNA.

Experiment [4] relates to rodent models (rat colon and oral carcinogenesis). The conditions noted are these: dietary administration; cited from earlier work.
Experiment [5] concerns MCF-7 mammary cancer cells (estrogen dependent). As to the kind of experiment: MCF-7 mammary cancer cell proliferation assay ([3H]thymidine incorporation). It counts as cell-based, human. The note with it: for phytoestrogen-induced cell proliferation: genistein (4 (M)). How it is done:
as §1, §2, §3, §4, §5, §6
Thus genistein not only stimulates hormone-dependent cancer cell proliferation, but IGF-I as well as other growth factors further augment this effect.
Cell cultures supplemented as above were further supplemented with lycopene at 3 to 5 μM concentration.

For experiment [6], the system named is MDA-231 mammary cancer cells (hormone independent). Nature of the experiment: MDA-231 mammary cancer cell proliferation assay ([3H]thymidine incorporation). Type of experiment: cell-based, human. Here is the method: as §1, §2, §3
After incubation, the number of cells and the rate of cell proliferation were estimated by the incorporation of [^3H]thymidine incorporation into cellular DNA, as described in U.S. Pat. No. 5,827,900. Cell growth was also measured by direct cell counting with a Coulter counter after trypsinization and dilution in Isotone-II (Coulter Electronics, Luton, England). A good correlation was found between the two methods. […]

[7] abbreviates: single high concentration (40 μM), after one day of incubation (FIG. 1, panel B).
[8] abbreviates: high, non-physiological carotenoid concentrations, about one order of magnitude greater than physiological (FIG. 6, panel B).
[9] abbreviates: lycopene at 3 to 5 μM, three days in culture (FIG. 2).
[10] abbreviates: lycopene at 3 to 5 μM, IGF-1 30 nM (FIG. 3).

Entries after “also recorded” stand apart in the source; their conditions may differ.

For `COc1ccc(-c2coc3cc(O)cc(O)c3c2=O)cc1` [biochanin A], the cell proliferation result is “not in estrogen receptor negative” in experiment [1] and “induce cell proliferation” in experiment [2].

Take `O=c1oc2cc(O)ccc2c2oc3cc(O)ccc3c12` [counestrol]: the cell proliferation entry was “not in estrogen receptor negative” in experiment [1] and “induce cell proliferation” in experiment [2].

For `O=c1c(-c2ccc(O)cc2)coc2cc(O)ccc12` [daidzein, reference compound], in experiment [3], the “cell proliferation ([3H]thymidine incorporation into DNA)” value is on record as “significant increase in cell proliferation rate; also recorded: stimulated cell proliferation”, the “inhibition of cell proliferation” value was “not” and the “effect on endometrial cancer cell growth over the concentration range” value is on record as “only stimulatory”. Further, in experiment [3] (setting [7]), the cell proliferation result is reported as “significantly increases cell proliferation; also recorded: stimulated cell proliferation”.

Turning to `CC1=C(/C=C/C(C)=C/C=C/C(C)=C/C=C/C=C(C)/C=C/C=C(C)/C=C/C2=C(C)C(=O)[C@@H](O)CC2(C)C)C(C)(C)C[C@H](O)C1=O` [astaxanthin], the genistein-induced cell proliferation entry in experiment [3] is reported as “effective inhibitors; also recorded: effectively inhibited”. Also, the “anti-tumorigenic effects in vivo” value in experiment [4] was “anti-tumorigenic effects”.

For the compound `CC(C)=CCC/C(C)=C/C=C/C(C)=C/C=C/C(C)=C/C=C/C=C(C)/C=C/C=C(C)/C=C/C=C(\C)CCC=C(C)C` [lycopene], the phytoestrogen-induced cell proliferation result in experiment [5] (setting [8]) is on record as “effective in significantly inhibiting”. The phytoestrogen-induced cell proliferation result in experiment [5] (low (physiological) concentrations: lycopene 0.4 μM, phytoene and phytofluene mixture 6 μM (FIG. 6, panel A)) is reported as “do not significantly affect”. In experiment [5] (setting [9]), the basal growth result is listed as “significantly inhibited” and the estradiol-induced growth result was “significantly inhibited”. For the same compound, the “IGF stimulation of cell proliferation (IGF-1 and genistein)” value in experiment [5] (setting [10]) is “inhibits the cell proliferation; also recorded: inhibits IGF stimulation”. Further, in experiment [5] (lycopene at 3 to 5 MM, three days in culture (FIG. 2)), the genistein-induced growth entry is given as “substantially inhibited; also recorded: significantly inhibited”. For the same compound, the “estradiol-induced cell proliferation, dose dependence” value in experiment [3] (estradiol at 10 nM, various lycopene concentrations, lowest 0.9 μM (FIG. 5)) is recorded as “inhibits, in a dose dependent manner; also recorded: effective in inhibiting”. Also, in experiment [3] (genistein at 1 μM, various lycopene concentrations, lowest 0.9 μM (FIG. 5)), the “genistein-induced cell proliferation, dose dependence” value is “inhibits, in a dose dependent manner; also recorded: effective in inhibiting”. Further, in experiment [3] (setting [9]), the basal growth result was “significantly inhibited”, the estradiol-induced growth entry is on record as “significantly inhibited” and the genistein-induced growth result is “substantially inhibited; also recorded: significantly inhibited”. In addition, the genistein-induced cell proliferation entry in experiment [3] is reported as “effective inhibitors; also recorded: effectively inhibited”. Moreover, in experiment [6] (setting [10]), the “IGF stimulation of cell proliferation” value is recorded as “inhibits IGF stimulation” and the “cell proliferation relative to controls” value is recorded as “reduced to levels less than that of controls”.

In the case of `CC1=C(/C=C/C(C)=C/C=C/C(C)=C/C=C/C=C(C)/C=C/C=C(C)/C=C/C2=C(C)CCCC2(C)C)C(C)(C)CCC1` [beta-carotene], in experiment [3], the genistein-induced cell proliferation result is listed as “effective inhibitors; also recorded: effectively inhibited”.

As to `CC(C)=CCC/C(C)=C/CC/C(C)=C/CC/C(C)=C/C=C/C=C(\C)CC/C=C(\C)CC/C=C(\C)CCC=C(C)C` [phytoene], the phytoestrogen-induced cell proliferation entry in experiment [5] (setting [8]) is “effective in significantly inhibiting”. Also, the genistein-induced cell proliferation entry in experiment [3] is recorded as “effective inhibitors”.

As for `O=c1c(-c2ccc(O)cc2)coc2cc(O)cc(O)c12` [genistein, reference compound], the cell proliferation result in experiment [1] is given as “not in estrogen receptor negative”; in experiment [3] (40 μM, by the second day in culture (FIG. 1, panel B)), “inhibitory effects”; in experiment [3] (setting [7]) it was “significantly increases cell proliferation; also recorded: stimulated cell proliferation”; in experiment [2], “induce cell proliferation”. For the same compound, in experiment [5] (genistein plus IGF-1 30 nM, compared to genistein only (FIG. 3, panel A)), the “stimulatory effect of genistein in the presence of IGF-I” value is given as “significantly increases the cell proliferation rate; also recorded: further augmented”. In addition, the “effect on proliferation over the concentration range” value in experiment [5] (stimulating at low, inhibiting at high concentrations (FIG. 2, panel A)) is on record as “biphasic effects on proliferation”. Besides, the “cell proliferation ([3H]thymidine incorporation into DNA)” value in experiment [3] was “significant increase in cell proliferation rate; also recorded: stimulated cell proliferation”. In addition, in experiment [3], the “inhibition of cell proliferation” value is “inhibited cell proliferation”. Besides, the “effect on endometrial cancer cell growth over the concentration range” value in experiment [3] was “biphasic effects on proliferation”.

In the case of `O=c1cc(-c2ccc(O)c(O)c2)oc2cc(O)cc(O)c12` [luiolin], the cell proliferation entry in experiment [1] is on record as “not in estrogen receptor negative”; in experiment [2] it was “induce cell proliferation”.

With “IGF-1: Human recombinant IGF-1 purchased from GroPep”, the cell growth entry in experiment [5] (IGF-1 30 nM (FIG. 3, panel A)) is recorded as “significantly stimulates cell growth”; in experiment [6] (IGF-1 30 nM (FIG. 3, panel B)), “significantly stimulates cell growth”.

Turning to `O=c1c(O)c(-c2ccc(O)cc2)oc2cc(O)cc(O)c12` [kaempferl], the cell proliferation entry in experiment [1] is “not in estrogen receptor negative”; in experiment [2] it was “induce cell proliferation”.
